Patent US20080014323A1, “ANTIOXIDANT COMBINATIONS FOR USE IN FEED RATIONS TO IMPROVE ANTIOXIDANT STATUS OF RUMINANTS” (NOVUS INTERNATIONAL INC., priority 2006, published 2008)

Experiments:
[1] = Active oxygen method (AOM): peroxide value of oils or fats after oxidative stress; type: physicochemical; conditions: soybean oil subjected to oxidative stress; 500 ppm; FIG. 1
[2] = Oil stability index (OSI) induction time; type: physicochemical; conditions: soybean oil; 500 ppm; FIG. 1

CCOc1ccc2c(c1)C(C)=CC(C)(C)N2 [ETX, 6-ethoxy-1,2-dihydro-2,2,4-trimethylquinoline]
peroxide values [1]: about 11 meq
OSI induction time [2]: about 6 hr
